Measured values published in patent US7378387B2, “Method of suppressing immune response by reducing intracellular content of glutathione in macrophages and monocytes” (Ajinomoto Co., Inc., priority 1997, dated 2008).

Tests used:
[1] = tested on: PGE2; assay: PGE2 in macrophage culture supernatant, advanced tumor-bearing mice (Example 4); assay type: in vivo, CDF1 mice; conditions: oral 1 mg/0.5 ml/h for 10 days, COLON 26 mice; control mice 32 ng/ml
Protocol: After the completion of the above-mentioned incubation, the culture supernatant was recovered. The amount of IL-6 was measured by the proliferation assay using an IL-6-dependent cell strain, MH60, the amount of PGE2 was measured using an ELISA-kit, and the amount of NO was measured using a Griess-Romijn reagent. These measurements were conducted by a method which those skilled in the art usually employ.
The COLON 26 transplantable tumor was implanted subcutaneously in the back portion of CDF1 mice at a density of 5×10^5 cells/mouse. […] Glutathione ethyl ester was orally administered to the mice every day in a dosage of 1 mg/0.5 ml/h. This oral administration was continued for 10 days. The peritoneal cells were collected from the mice in the same manner as in Example 3. Peritoneal macrophages were collected, and suspended in a phenol red-free RPMI 1640 medium containing 10% fetal calf serum to a density 3×10^5 cells/ml. The suspension was charged into a Lab-Tek Chamber Slide (#136439, supplied by Nunc) in an amount of 100 μl, and the incubation was conducted in 5% CO2 at 37° C. for 3 hours. After the nonadherent cells were removed, 200 μl of above-mentioned medium free from serum were added thereto, and 10 μM of monochlorobimane were then added thereto. […]

[2] = tested on: COLON 26 transplantable tumor; assay: Survival of COLON 26 advanced tumor-bearing cachectic mice (Example 4); assay type: in vivo, CDF1 mice; conditions: oral 1 mg/0.5 ml/h for 10 days, COLON 26 mice; control mice 42
[3] = tested on: IL-12; assay: IL-12 production by MΦ induced by intraperitoneal injection of substances (Example 7); assay type: in vivo, mouse
Protocol: The amount of IL-12 was determined through bioassay using cells of human T cell strain 2D6 (J. Leukocyte Biology, vol. 61, p. 346, 1997).
2D6 cells which had been incubated in an RPMI 1640 medium containing 500 pg/ml of recombinant human IL-12, 50 μM of 2-mercaptoethanol and 10% FCS (fetal calf serum) were moved to a tube, and centrifugally washed three times with the above-mentioned medium without IL-12 and cell density was adjusted to 1×10^5/ml. The cell suspension was added in an amount of 100 μl each to a 96-well flat bottom plate containing a sample serially diluted in advance with an RPMI 1640 medium containing 50 μM of 2-mercaptoethanol and 10% FCS in an amount of 100 μl each. Subsequently, the mixture was charged into a 5% […] incubator of 37° C., and incubated for 48 hours. For final 6 hours, ^3H-TdR was pulsed (a substance adjusted to 370 kBq/ml in an RPMI 1640 medium containing 50 μM of 2-mercaptoethanol and 10% FCS was added in an amount of 50 μl each). The cells a harvested, and the radioactivity was measured using a β counter (Matrix 96, supplied by Packard).
It was examined whether there is a difference in the IL-12 production between LNT-induced MΦ and LPS-induced MΦ. […] Next, the same analysis was conducted using MΦ induced by intraperitoneally injecting substances for changing the GSH content in cells.

[4] = tested on: reductive glutathione in MΦ; assay: GSH content in MΦ by ACAS after NAC drinking and/or IL-2 administration (Example 8); assay type: in vivo, DBA/2 female mice; conditions: NAC 1 mg/ml in city water; IL-2 intraperitoneally twice a day every two days for two weeks; day 14
Protocol: Three-hundred microliters of a cell suspension adjusted concentration of 3×10^5 cells/ml in an RPMI 1640 medium (phenol red-free) were charged into a chambered coverglass (#136439, supplied by Nunc), and incubated at 37° C. for 2 hours using a CO2 incubator. The culture solution was washed with the medium, and 300 μl of monochlorobimane (supplied by Molecular Plobe) adjusted to 10 μM in the same medium were added thereto. The mixture was charged into a CO2 incubator of 37° C., and the reaction was conducted for 30 minutes. The fluorescent intensity was measured with ACAS. In ACAS, a UV laser was used.
Two groups, namely, a group of 8-week-old DBA/2 female mice which were caused to freely drink city water as in Example 6, and a group of the same female mice which were caused to freely drink city water containing 1 mg/ml of NAC, were prepared. Further, the two groups of the-above-mentioned mice to which human recombinant IL-2 in an amount of 2 pg/0.5 ml/h was intraperitoneally administered twice a day, every two days for two weeks were provided.

[5] = tested on: macrophages within the thoracic cavity of the patient suffering from sarcoidosis; assay: GSH and GSSG content by enzyme recycling method in macrophages of a sarcoidosis patient incubated with NAC (Example 5); assay type: cell-based, human; conditions: 5 mM NAC, 3 hours
Source text: The amounts of oxidative and reductive monocytes macrophages contained in monocytes preparation separated and collected in a usual manner from the peripheral blood and the thoracic cavity of the patient suffering from sarcoidosis were examined by biochemically measuring the contents of reductive glutathione (GSH) end oxidative glutathione (GSSG) by the enzyme recycling method. The peripheral blood of the healthy person was used as a control.
The peripheral blood of the healthy person and the peripheral blood of the patient suffering from sarcoidosis were collected with heparin. Or 150 ml of a physiological saline solution was injected into the bronchia of the patient using a bronchofiber, and 75 ml of bronchoalveolar lavaged fluid were recovered. Monocytes obtained by separating and purifying both of them using Ficoll-Hypaque (LYMPHOPREP) were suspended in an RPMI 1640 medium containing 10% fetal calf serum, and washed three times to obtain macrophage/monocyte preparation adherent to a glass petri dish for 30 minutes. Subsequently, a group incubated for 3 hours with the addition of 5 mM N-acetylcysteine (NAC) and a group of a medium component alone were prepared. A rubber policeman was used to recover adherent cells from the petri dish. With respect to 5×10^5 macrophages, the following examination was conducted.
The contents of reductive glutathione and oxidative glutathione were measured by the above-mentioned enzyme recycling method. […]
A 10 mM phosphate buffer (590 μl, pH 7.5) containing 0.5 mM EDTA, 100 μl of glutathione reductase (supplied by Boehlinger Mannhein) adjusted to a concentration of 6 u/ml in the same buffer, 50 μl of 4 mM NADPH (supplied by Sigma Co.) prepared with 5% NaHCO3 and 10 μl of the sample were mixed. […] The change in the absorbance of 412 nm at 37° C. over the course of time was measured using a spectrophotometer. […]

[6] = tested on: IL-6; assay: IL-6 production of MΦ after NAC drinking and/or IL-2 administration (Example 8); assay type: in vivo, DBA/2 female mice; conditions: stimulated with LPS and IFNγ; control mice 1,240 pg/ml
Protocol: A stimulator was added to 1×10^6 MΦ, and the incubation was conducted at 37° C. for 2 days in a CO2 incubator. After centrifugation, the culture supernatant was collected.
The amount of IL-6 was determined using IL-6 dependent mouse hybridoma MH60 cells (J. Eur. Immunol., vol. 18, p. 951, 1988). One hundred microliters of the culture supernatant were added to 100 μl of the MH60 cell suspension adjusted to 1×10^5 cells/ml in a 10% FCS-containing RPMI medium, and the mixed solution was incubated at 37° C. for 2 days in a CO2 incubator. Subsequently, 10 μl of MTT (supplied by Sigma Co.) solution adjusted to a concentration of 5 mg/ml in the same medium were added thereto, and the reaction was conducted at 37° C. for 5 hours. […] Immediately after the dissolution, an absorbance of 570 nm was measured with an immunometer (supplied by Bio-Rad).
Two groups, namely, a group of 8-week-old DBA/2 female mice which were caused to freely drink city water as in Example 6, and a group of the same female mice which were caused to freely drink city water containing 1 mg/ml of NAC, were prepared. […] On day 14, the IL-12 production from MΦ was measured in the same manner as in Example 6.
Peritoneal cells were harvested from four groups of the mice, and stimulated with LPS and IFNγ. Then, the NO production, the IL-6 production and the IL-12 production were measured.

In the case of `CCOC(=O)CNC(=O)[C@H](CS)NC(=O)CC[C@H](N)C(=O)O` [GSH-OEt, glutathione monoethyl ester], the “amount of PGE2” value [1] is reported as 6.5 ng/mL, the “average number of survival days” value [2] is reported as 148 days and the IL-12 production ([3]; MΦ induced by intraperitoneal injection of the substance, stimulation with LPS and IFNγ) is reported as 3,570 pg/ml. For the same compound, the “IL-12 production of substance-induced MΦ, without DEM or IL-4” value ([3]; baseline values of the DEM and IL-4 experiments) was 490 pg/mL.

With `CC(=O)N[C@@H](CS)C(=O)O` [NAC, N-acetylcysteine, reference compound] the “content of reductive glutathione in MΦ (ACAS)” value [4] was “markedly increased”, the “ratio of reductive GSH” value [5] was “exceeded 80%” and the “content of reductive GSH” value ([5]; without NAC 1.45 μM) was 20.45 µM. For the same compound, the “content of oxidative GSSG” value ([5]; without NAC 15.85 μM) was 4.32 µM and the “amount of IL-6 in the macrophage culture supernatant” value [6] was 320 pg/mL.
